Several values for one entry are separate records, joined by “and”; a condition that tells them apart may be missing. Identical values can stand only once.
Conditions: Liquid, Closed cell (Static) method

OCCO [1,2-ethanediol]
Conditions	vapor or sublimation pressure [kPa]
307.7 K	0.028
312.6 K	0.041
316.5 K	0.055
318.8 K	0.061
322.1 K	0.077
326.1 K	0.107
328.2 K	0.124
334.5 K	0.196
335.2 K	0.201
340.2 K	0.278
347.9 K	0.454
359.2 K	0.9
367.9 K	1.483
373.4 K	1.95
384.5 K	3.467

O=CCO [2-hydroxyacetaldehyde]
Conditions	vapor or sublimation pressure [kPa]
295.85 K	0.0037
305.1 K	0.009
305.51 K	0.0096
319.5 K	0.0335
319.84 K	0.0335
322.38 K	0.0368
323.64 K	0.0458
327.73 K	0.062
333.04 K	0.0984
339.32 K	0.153
340.91 K	0.17
341.95 K	0.182
342.82 K	0.198
346.83 K	0.253
355.98 K	0.486

CC(=O)CO [acetol]
Conditions	vapor or sublimation pressure
273.22 K	0.127 kPa
275.48 K	0.136 kPa
277.78 K	0.162 kPa
278.55 K	0.167 kPa and 0.172 kPa
280.9 K	0.201 kPa
281.69 K	0.205 kPa and 0.21 kPa
289.86 K	0.356 kPa
290.7 K	0.363 kPa and 0.36 kPa
293.26 K	0.431 kPa
295.86 K	0.516 kPa and 0.495 kPa
296.74 K	0.531 kPa
300.3 K	0.617 kPa
301.2 K	0.642 kPa
302.11 K	0.717 kPa
303.03 K	0.746 kPa
303.95 K	0.817 kPa

From the NIST ThermoML archive (doi:10.1021/je9004905)
